Marks after values point to notes of the source that are not given here.
Assays:
sarcoma 45 = assay: Disturbance of DNA synthesis in tumors (inhibition index); assay type: in vivo, rats; conditions: drug resistant sarcoma 45, alone
X-653 cells [1] = assay: Viability of transformed cells, trypan blue exclusion; assay type: cell-based, mouse; conditions: 12 μg/ml, 18 hours
Protocol: (§1) Mouse mastocytoma (P-815), myeloma (Z-P3x63Ag8.653 and Pai) and human erthyroleukemia (K-562) cell lines were used. Primary cultures of normal mouse hepatocytes were isolated from mouse liver using collagenase. Mouse splenocytes were isolated using a glass homogenizer. Marrow cells were obtained by washing the bone marrow. See, for example, Shears, S. B. and Kirk, C. J. (1984), Biochem. J. 219:375-382.
(§2) Cells were cultured in RPMI-1640 medium supplemented with 10% fetal calf serum, 100 mM L-glutamine and 50 μg/ml gentamycin at 37° C. under 5% CO2. Cells were seeded into 24-well plates at a density of 50,000 cells/well and grown until near confluency, approximately 2 days, then transferred to 96-well plates at the same density. […] Viability of the cells was determined by trypan blue exclusion. […] Approximately 25% of K-562 and X-653 cells survived at a concentration of 12 μg/ml, and the same proportion of P-815 cells survived at a concentration of about 25 μg/ml.

P-815 cells [2] = assay: as above; assay type: cell-based, mouse; conditions: about 25 μg/ml, 18 hours
Protocol: as §1, §2

Leucemia P-388 = assay: Implanted leukemia, inhibition / survival; assay type: in vivo, mice and rats
X-653 cells [3] = assay: Proliferation of transformed cells, 3H-thymidine incorporation; assay type: cell-based, mouse; conditions: 3H-thymidine 18 hours, FIG. 6
Protocol: as §1, §2
(§3) The proliferation of the transformed cells was assessed by incubating ^3H-labeled thymidine in the media for 18 hours. At the end of the specified time period, the proliferation was measured by counting the amount of ^3H-thymidine incorporated. Thymidine incorporation provides a quantitative measure of the rate of DNA synthesis, which is typically directly proportional to the rate of cell division.

P-815 cells [4] = assay: as above; assay type: cell-based, mouse; conditions: 3H-thymidine 18 hours, FIG. 6
Protocol: as §1, §2, §3

Sarcoma-45 = assay: Inhibition of tumor growth in implanted tumors; assay type: in vivo, rats
stage IV cancer = assay: Second clinical trial, 72 patients; assay type: in vivo, human
Description: A three to six month lag in dimethylaminoarglabin hydrochloride production halted the first clinical trial. […] Among the patients, 25% had carcinoma of the stomach, 16.7% had liver cancer, 18.1% had lung cancer and the remaining 40.2% had esophageal, breast, ovarian, pancreatic, brain or lymphosarcoma. Patients with poorer states had metastases to the liver (25%), retroperitoneal lymph nodes (25), ascites (22.2%) and exudative pleuritis (11.1%).

Sarcoma-37 = assay: Inhibition of tumor growth in implanted tumors; assay type: in vivo, mice and rats; conditions: dose 30 mg/kg
[5] = tested on: Pliss Lymphosarcoma resistant to prospidine; assay: Inhibition of growth of resistant tumour strains; duration of life and metastasis; assay type: in vivo, rats
[6] = tested on: drug resistant metastasis of Pliss' lymphosarcoma; assay: Model of drug resistant metastasis of Pliss' lymphosarcoma; assay type: in vivo, rats; conditions: alone
geranylgeranylation = assay: Protein prenylation in myeloma Pai cells, naphthol cleavage and HPLC; assay type: cell-based, mouse; conditions: 60 μM, FIG. 8B
Protocol: The cells were collected by centrifugation at 600×g for 10 minutes and then washed twice in PBS. Control cells were grown in the absence of drug. The cells were solubilized in lysis buffer (50 mM Tris, pH 7.4, 25 mM EDTA, 0.05% Tween, 0.01 M NaCl) for 30 minutes on ice. Lysates were made by homogenization for 5 minutes at 4° C. and precipitated by centrifugation at 12,000×g for 10 minutes. The supernatant was collected. Proteins were precipitated with trichloroacetic acid and then successively washed with ethanol and ethyl ether. A selective naphthol cleavage of the bond between isoprenoides and proteins was performed as described by Epstein, W. W et al., (1991) Proc. Natl. Acad. Sci. USA 88:9668-9670. In general, 5 mg of a potassium naphthoxide and naphthol 4:1 mixture was added to approximately 10 mg of precipitated protein. After addition of 50 μl of dimethylformamide, the tubes were gassed with argon, capped and heated to 100° C. for eight to 15 hours. Reaction products were extracted with hexane and analyzed by HPLC (Waters System) using a 0.4×15 cm reverse-phase Nova-Pac C18 column. The column was eluted with 20% water in acetonitrile at a flow of 1.0 ml/minute. Napthol cleavage products were detected at 360 nm (FIG. 8) with a full-scale deflection of 0.01 A unit. […]

immune system = assay: Immune system modulation in mice immunodepressed with cyclophosphamide; assay type: in vivo; conditions: 10 mg/kg for 10 days
Protocol: Mice were immunodepressed by administration of 200 mg/kg of cyclophosphamide. […] The Hemagglutination test and delayed-type hypersensitivity reaction were determined before and after administration of drug.
The increased number of T-lymphocytes was accompanied by an elevation in the T-helper subpopulation as well as the T-suppressor subpopulation, although to a lesser extent.

[7] = tested on: end-stage (III-IV) cancer; assay: First clinical trial, 51 patients
Protocol: The patient population was 67.9% male and 32.1% female. […] Intrapleural administration was used for patients with pleurisy. Patients were given a very small dose and monitored for any signs of allergic reaction before proceeding. […] After 30-35 days, the dose was increased to 480 mg per day. […] It was estimated that the daily dose should be about 240-280 mg for typical cases. […] Additional courses of treatment were administered to some patients. Patient condition before treatment was rated on a scale of 1 to 3, where 1 was bedridden, 2 was a significant restriction on activity and 3 retained full activity. Therapeutic result was measured on a scale from 0 to 3, where 0 was no improvement, 1 was insignificant or improvement for less than a month, 2 was considerable improvement (25-50% reduction in tumor size) and 3 was sharp improvement (50-100% reduction in tumor size).

[8] = Ability to keep normal activities, minimum signs of the disease
[9] = Maintains themself, but is not able to work
[10] = Needs occasional assistance, but is able to maintain themself
[11] = Normal activities are hardly performable, some signs of the disease

## CC1=CCC23OC2(C)CCC2C(CN(C)C)C(=O)OC2C13.Cl (stereo not drawn) [Dimethylaminoarglabin hydrochloride]
Sarcoma 45
  DNA inhibition index: 99%
X-653 cells [1]
  cells survived: Approximately 25%
P-815 cells [2]
  cells survived: Approximately 25%
Leucemia P-388; dose 30 mg/kg
  Leucemia P-388 PALT - increase in survival: +144%
Leucemia P-388; dose 50 mg/kg
  Leucemia P-388 PALT - increase in survival: +109.0%
X-653 cells [3]
  concentration at which proliferation was effectively blocked: 6 µg/mL
P-815 cells [4]
  concentration at which proliferation was effectively blocked: 12 µg/mL
Sarcoma-45; dose 30 mg/kg
  Inhibition of Tumour Growth, % - Sarcoma-45: 86.5*** %
Sarcoma-45; dose 50 mg/kg
  Inhibition of Tumour Growth, % - Sarcoma-45: 83.1** %
Stage IV cancer; 8 of 72
  patients with no response: 11.1%
Stage IV cancer; 64 of 72
  patients responded to therapy: 88.9%
Stage IV cancer; 72 patients
  % of Patients - Absence of dynamics or stabilization: 31.9%
  % of Patients - Partial regression over or equal to 50% decrease of tumor or metastasis: 61.1%
  % of Patients - Progression: 7.0%
Stage IV cancer; [8]
  Number of Patients % - Karnofsky scale 90: 41.7%
  Number of Patients abs, N - Karnofsky scale 90: 30
Stage IV cancer; After Treatment (before treatment 2.0)
  Thrombocytes, mean index of peripheral blood: 2.8 thsd
Stage IV cancer; After Treatment (before treatment 2.3-3.0)
  Erythrocytes, mean index of peripheral blood: 3.0 10^12/l-10^9/l
Stage IV cancer; After Treatment (before treatment 4.5-5.5)
  Leukocytes, mean index of peripheral blood: 4.0 10^12/l-10^9/l
Stage IV cancer; After Treatment (before treatment 8-15)
  Lymphocytes, mean index of peripheral blood: 15-20
Stage IV cancer; During Treatment (before treatment 2.0)
  Thrombocytes, mean index of peripheral blood: 2.3 thsd
Stage IV cancer; During Treatment (before treatment 2.3-3.0)
  Erythrocytes, mean index of peripheral blood: 2.4-3.0 10^12/l-10^9/l
Stage IV cancer; During Treatment (before treatment 4.5-5.5)
  Leukocytes, mean index of peripheral blood: 3.5-4.0 10^12/l-10^9/l
Stage IV cancer; During Treatment (before treatment 8-15)
  Lymphocytes, mean index of peripheral blood: 28-35
Stage IV cancer; Extreme invalidism
  Number of Patients % - Karnofsky scale 30: 4.2%
  Number of Patients abs, N - Karnofsky scale 30: 3
Stage IV cancer; [9]
  Number of Patients % - Karnofsky scale 70: 33.3%
  Number of Patients abs, N - Karnofsky scale 70: 24
Stage IV cancer; [10]
  Number of Patients % - Karnofsky scale 60: 6.9%
  Number of Patients abs, N - Karnofsky scale 60: 5
Stage IV cancer; [11]
  Number of Patients % - Karnofsky scale 80: 13.9%
  Number of Patients abs, N - Karnofsky scale 80: 10
Stage IV cancer; patients, hydrochloride
  side effects: No side effects
Sarcoma-37
  Inhibition of Tumour Growth, % - Sarcoma-37: 78.2* %
[5]; dose 30 mg/kg
  Inhibition of Tumour Strains Growth, % - Resistant Forms - Pliss Lymphosarcoma to prospidine: 62.3%
[5]; dose 50 mg/kg
  Inhibition of Tumour Strains Growth, % - Resistant Forms - Pliss Lymphosarcoma to prospidine: 87.4*** %
[6]
  duration of life in comparison with the control group: 128%
geranylgeranylation
  geranylgeranyl peak: appeared as in the control
Immune system
  leukopenia and lymphopenia: reduced the leukopenia and lymphopenia
[7]; 480 mg per day
  complaints at high dose: nausea and vomiting
[7]; liver cancer
  patients with a considerable improvement: 55.6%
[7]; lung cancer
  patients with a considerable improvement: about 64%
[7]; ovarian cancer
  patients with a considerable improvement: 66%
[7]; overall
  patients with a considerable improvement: approximately 30%
[7]; patient 47, rectal cancer III stage, suppositories
  Note(s) - decrease in tumor: 50% decrease
[7]; patients
  hematopoiesis: did not suppress hematopoiesis
  toxicity: little toxicity
[7]; quickly dissipated
  taste reported immediately after administration: bitter taste
